Test results reported in patent publication US9226919B2, “Methods for dosing an orally active 1,2,4-oxadiazole” (PTC Therapeutics, Inc., priority 2006, dated 2016).
Where “and” joins values, the source holds several entries; their conditions need not be identical. Identical values can stand only once.

Tests used:
Type in all cases: in vivo, human
[1] = tested on: patients with nonsense-mutation-mediated cystic fibrosis; test: Pulmonary function tests (FEV1, FVC), Phase 2 cystic fibrosis study
Description: Pulmonary function tests, including FEV1, FVC, and MEF25-75, are measured using standard spirometry procedures. Assessments of pulmonary function (including MEF25-75, FVC, and, particularly, FEV1) have been acknowledged as definitive clinical endpoints in patients with CF (Food and Drug Administration, 62nd Anti-Infective Drugs Advisory Committee. Discussion of NDA for tobramycin solution for inhalation (Tobi®) for the management of cystic fibrosis patients. November, 1997; Tiddens, 2002, Pediatr. Pulmonol. 34(3): 228-31). […] Pulmonary function testing is simple to administer (even in patients as young as 7 years of age), and uses standardized equipment and techniques that are widely available. Interpretation is performed using well-established normative equations that account for patient age, height, and gender.
3-[5-(2-Fluoro-phenyl)-[1,2,4]oxadiazol-3-yl]-benzoic acid was provided in a formulation described herein.
Clinical endpoints were evaluated using the procedures set forth above. TEPD measurements were made prior to treatment and on days 14 and 28 of Cycle 1 and Cycle 2. Nasal mucosal curettage was collected from each nostril of each patient prior to treatment and on days 14 and 28 of Cycle 1 and Cycle 2. Pulmonary tests, including FEV1, FVC and MEF25-75, were measured prior to treatment, on day −1 of Cycle 2, on day 13 or 14 of Cycle 1 and day 13 or 14 of Cycle 2 in the study being conducted in Israel and the same parameters were measured prior to treatment and on day 13 or 14 of Cycle 2 in the study being conducted in the United States.
Statistically significant results and positive trends for secondary endpoints were also observed. In particular, although the trials were not been powered to detect statistical significant changes in secondary endpoints, statistically significant improvements from study entry to the end of the higher-dose treatment cycle in the patients' mean FEV1, FVC and weight were observed.

[2] = tested on: patients with nonsense-mutation-mediated cystic fibrosis; test: Investigator-asked changes in cystic fibrosis symptoms, Phase 2 studies
Text: In addition, although changes in patient's symptoms were not formally measured through the use of a quality-of-life questionnaire, trial investigators were requested to ask about changes in patients' cystic fibrosis symptoms. In the 15 patients included in the interim analysis, 6 reported general improvements in well being, 6 reported decrease in cough and 10 reported decreased mucus thickness and easier clearing of mucus.
The device was used to obtain the data set forth in FIG. 2 and will be used to offer substantial supplementary data regarding the clinical benefits of 3-[5-(2-fluoro-phenyl)-[1,2,4]oxadiazol-3-yl]-benzoic acid during Phase 3 testing in CF. Existing informally collected symptom data from the Phase 2 studies of 3-[5-(2-fluoro-phenyl)-[1,2,4]oxadiazol-3-yl]-benzoic acid support this concept. […] Without being limited by theory, based on the hypothesis that 3-[5-(2-fluoro-phenyl)-[1,2,4]oxadiazol-3-yl]-benzoic acid-mediated induction of CFTR function would reduce airway obstruction and inflammation, a decrease in cough frequency could serve as a symptomatic integration of these pharmacological effects and might offer a more accurate and quantitative assessment than verbal patient reporting.

dystrophin = test: Dystrophin expression in EDB muscle biopsy by immunofluorescence, Phase 2 DMD study; details: for In Vivo Expression Response (dystrophin): individual DMD patients, 28 days
Description: Biopsy of the EDB muscle and overlying skin from one foot is performed under local anesthesia and conscious sedation (in some cases, general anesthesia may be required) prior to treatment, and from the other foot on the last day of treatment. The biopsy procedure is performed using standardized techniques (Stedman, 2000, Human Gene Therapy 11:777-90). The entire muscle belly (whenever possible) is removed in the procedure. At the time of collection of the biopsy prior to treatment, the muscle specimen is divided into at least 3 fragments and the biopsy specimen collected on the last day of treatment is divided into at least 2 fragments. The biopsy specimen is placed on a telfa gauze sponge moistened with Ringer's saline. The biopsy specimen is viewed at low power under a stereo dissection microscope to establish fiber orientation. The muscle is then transected using a sharp scalpel in a cross sectional fashion (perpendicular to the orientation of the fibers) whenever possible and allowed to rest for 2 minutes to allow for the cessation of spasm. The sample is then frozen in liquid nitrogen cooled isopentane, transferred to a liquid nitrogen reservoir and held 1 inch above the liquid/vapor interface for 2 minutes of slow cooling and isopentane evaporation before immersion in the liquid nitrogen, and wrapped into precooled (in liquid nitrogen and stored on dry ice) foil labeled with the study number, site number, patient number, date, patient initials, and foot side (right foot or left foot).
All sample containers are clearly labeled in a fashion that identifies the subject and the collection date. Labels are fixed to the sample containers in a manner that prevents the label from becoming detached. Samples are shipped for analysis/culture/central review immediately after the procedure is performed. For detection of dystrophin, 3 commercially available antibodies that recognize the C-terminus, the N-terminus, and the rod domain of the protein are employed. For detection of the sarcoglycan and dystroglycan complex, commercially available antibodies against α-, β-, γ-, and δ-sarcoglycan, and β-dystroglycan are used when possible. Epifluorescence microscopy is used in the analysis; images are captured by CCD camera, after normalization of the fluorescence intensity against a normal muscle specimen. Images are stored digitally and preserved for future review, and final evaluation at the completion of the study. Tissues are also processed for detection of dystrophin, the sarcoglycans, and β-dystroglycan by Western blotting using the same antibodies. Microscopic images are captured and preserved for future review, and for final evaluation at the completion of the study. Remaining muscle tissue samples are preserved for confirmatory assays of mRNA and proteins involved in DMD. […]

[3] = study entry to end of higher dose treatment
[4] = of 15 CF patients in interim analysis

Compound: O=C(O)c1cccc(-c2noc(-c3ccccc3F)n2)c1 [3-[5-(2-fluoro-phenyl)-[1,2,4]oxadiazol-3-yl]-benzoic acid]
- Mean FEV1 (percentage of normal for gender, age and height), End of Higher Dose Treatment ([1]; end of higher-dose cycle (10, 10, 20 mg/kg TID), study entry 65.8%): 69.1%
- Mean FVC (percentage of normal for gender, age and height), End of Higher Dose Treatment ([1]; end of higher-dose cycle (10, 10, 20 mg/kg TID), study entry 80.2%): 85.1%
- Mean FEV1 (percentage of normal), Change [1, 3]: 3.3%
- Mean FVC (percentage of normal), Change [1, 3]: 4.9%
- Patients reporting decrease in cough [2, 4]: 6
- Patients reporting decreased mucus thickness and easier clearing of mucus [2, 4]: 10
- Patients reporting general improvements in well being [2, 4]: 6
- Patient-described on-study coughing ([2]; several patients, informally collected symptom data, Phase 2 studies): decreases in coughing
- In Vivo Expression Response (dystrophin) (dystrophin; High Dose: 20, 20, 40 mg/kg): Yes (6×) and No (6×)
- In Vivo Expression Response (dystrophin) (dystrophin; Low Dose: 4, 4, 8 mg/kg): Yes (4×) and No (2×)
- In Vivo Expression Response (dystrophin) (dystrophin; Middle Dose: 10, 10, 20 mg/kg): Yes (10×) and No (10×)
- Extensor digitorum brevis muscle membrane dystrophin on staining for the C-terminal domain (dystrophin; some patients at both dose levels, day 28 relative to baseline): Partial restoration or increase
